Reference: patent US20240165244A1 (Prelude Therapeutics Incorporated, priority 2022, published 2024)

What was measured:
SMARCA2 = biological target: T1, SMARCA2 (Homo sapiens, UniProt P51531); experiment: SMARCA2 HiBiT degradation assay in HeLa cells; assay type: cell-based; settings: 18 hours, highest concentration 10 μM
T1 construct: SMARCA2-HiBiT knock-in Hela monoclonal cell (CS302366); host or cells: HeLa monoclonal cells with heterozygous HiBiT knock-in at the endogenous SMARCA2 locus
Experimental: (§1) SMARCA2 HiBiT and SMARCA4 HiBiT Degradation Assay
HiBiT peptide knock-in of SMARCA2 in LgBiT expressing HEK293T cells was performed by CRISPR-mediated tagging system as described Promega. The homozygous HiBiT knock-in on c-terminus SMARCA2 was confirmed by sanger sequence. SMARCA2-HiBiT knock-in Hela monoclonal cell (CS302366) and SMARCA4-HiBiT knock-in Hela monoclonal cell (CS3023226) were purchased from Promega. The heterozygous HiBiT-knock-in was confirmed by sanger sequence in both SMARCA2-HiBiT and SMARCA4-HiBiT monoclonal cells.
(§2) SMARCA2 HiBiT and SMARCA4 HiBiT Degradation Assay in HeLa Cells
Dispense 10 ul aliquot of prepared Hela-SMARCA2-HiBiT or Hela-SMARCA4-HiBiT cells (1:1 ratio of cells:Trypan Blue (#1450013, Bio-Rad)) onto cell counting slide (#145-0011, Bio-Rad) and obtain cell density and cell viability using cell counter (TC20, Bio-Rad). Remove appropriate volume of resuspended cells from culture flask to accommodate 2500 cells/well @ 20 μL/well. Transfer Hela-HiBiT cells to 50 mL conical (#430290, Corning). Spin down at 1000 rpm for 5 min using tabletop centrifuge (SPINCHRON 15, Beckman). Discard supernatant and resuspend cell pellet in modified EMEM (#30-2003, ATCC) cell culture media containing 10% FBS (F2422-500ML, Sigma), and 1× Penicillin/Streptomycin ([…]) (30-002-CI, Corning) to a cell density of 125,000 cells/mL. Dispense 20 μLof resuspended Hela-HiBit cells per well in 384-well TC treated plate (#12-565-343, Thermo Scientific) using standard cassette (#50950372, Thermo Scientific) on Multidrop Combi (#5840310, Thermo Scientific) inside laminar flow cabinet.
Compounds were dissolved in DMSO to make 10 mM stock and 3-fold series dilutions were further conducted keeping the highest concentration 10 μM. Dispense test compounds onto plates using digital liquid dispenser (D300E, Tecan). Incubate plates in humidified tissue culture incubator @37° C. for 18 hours. Add 20 μL of prepared Nano-Glo® HiBiT Lytic detection buffer (N3050, Promega) to each well of 384-well plate using small tube cassette (#24073295, Thermo Scientific) on Multidrop Combi, incubate @ RT for 30-60 min. Read plates on microplate reader (Envision 2105, PerkinElmer) using 384 well Ultra-Sensitive luminescence mode. Raw data files and compound information reports are swept into centralized data lake and deconvoluted using automated scripts designed by TetraScience, Inc. Data analysis, curve-fitting and reporting done in Dotmatics Informatics Suite using Screening Ultra module.

SMARCA4 = biological target: T2, SMARCA4 (Homo sapiens, UniProt P51532); experiment: SMARCA4 HiBiT degradation assay in HeLa cells; assay type: cell-based; settings: 18 hours, highest concentration 10 μM
T2 construct: SMARCA4-HiBiT knock-in Hela monoclonal cell (CS3023226); host or cells: HeLa monoclonal cells with heterozygous HiBiT knock-in at the endogenous SMARCA4 locus
Experimental: as §1
HiBiT peptide knock-in of SMARCA2 in LgBiT expressing HEK293T cells was performed by CRISPR-mediated tagging system as described Promega. […] SMARCA2-HiBiT knock-in Hela monoclonal cell (CS302366) and SMARCA4-HiBiT knock-in Hela monoclonal cell (CS3023226) were purchased from Promega.
as §2
Remove appropriate volume of resuspended cells from culture flask to accommodate 2500 cells/well @ 20 μL/well. […] Spin down at 1000 rpm for 5 min using tabletop centrifuge (SPINCHRON 15, Beckman).
Dispense test compounds onto plates using digital liquid dispenser (D300E, Tecan). Incubate plates in humidified tissue culture incubator @37° C. for 18 hours. […] Raw data files and compound information reports are swept into centralized data lake and deconvoluted using automated scripts designed by TetraScience, Inc. Data analysis, curve-fitting and reporting done in Dotmatics Informatics Suite using Screening Ultra module.

T1 sequence (P51531 whole entry): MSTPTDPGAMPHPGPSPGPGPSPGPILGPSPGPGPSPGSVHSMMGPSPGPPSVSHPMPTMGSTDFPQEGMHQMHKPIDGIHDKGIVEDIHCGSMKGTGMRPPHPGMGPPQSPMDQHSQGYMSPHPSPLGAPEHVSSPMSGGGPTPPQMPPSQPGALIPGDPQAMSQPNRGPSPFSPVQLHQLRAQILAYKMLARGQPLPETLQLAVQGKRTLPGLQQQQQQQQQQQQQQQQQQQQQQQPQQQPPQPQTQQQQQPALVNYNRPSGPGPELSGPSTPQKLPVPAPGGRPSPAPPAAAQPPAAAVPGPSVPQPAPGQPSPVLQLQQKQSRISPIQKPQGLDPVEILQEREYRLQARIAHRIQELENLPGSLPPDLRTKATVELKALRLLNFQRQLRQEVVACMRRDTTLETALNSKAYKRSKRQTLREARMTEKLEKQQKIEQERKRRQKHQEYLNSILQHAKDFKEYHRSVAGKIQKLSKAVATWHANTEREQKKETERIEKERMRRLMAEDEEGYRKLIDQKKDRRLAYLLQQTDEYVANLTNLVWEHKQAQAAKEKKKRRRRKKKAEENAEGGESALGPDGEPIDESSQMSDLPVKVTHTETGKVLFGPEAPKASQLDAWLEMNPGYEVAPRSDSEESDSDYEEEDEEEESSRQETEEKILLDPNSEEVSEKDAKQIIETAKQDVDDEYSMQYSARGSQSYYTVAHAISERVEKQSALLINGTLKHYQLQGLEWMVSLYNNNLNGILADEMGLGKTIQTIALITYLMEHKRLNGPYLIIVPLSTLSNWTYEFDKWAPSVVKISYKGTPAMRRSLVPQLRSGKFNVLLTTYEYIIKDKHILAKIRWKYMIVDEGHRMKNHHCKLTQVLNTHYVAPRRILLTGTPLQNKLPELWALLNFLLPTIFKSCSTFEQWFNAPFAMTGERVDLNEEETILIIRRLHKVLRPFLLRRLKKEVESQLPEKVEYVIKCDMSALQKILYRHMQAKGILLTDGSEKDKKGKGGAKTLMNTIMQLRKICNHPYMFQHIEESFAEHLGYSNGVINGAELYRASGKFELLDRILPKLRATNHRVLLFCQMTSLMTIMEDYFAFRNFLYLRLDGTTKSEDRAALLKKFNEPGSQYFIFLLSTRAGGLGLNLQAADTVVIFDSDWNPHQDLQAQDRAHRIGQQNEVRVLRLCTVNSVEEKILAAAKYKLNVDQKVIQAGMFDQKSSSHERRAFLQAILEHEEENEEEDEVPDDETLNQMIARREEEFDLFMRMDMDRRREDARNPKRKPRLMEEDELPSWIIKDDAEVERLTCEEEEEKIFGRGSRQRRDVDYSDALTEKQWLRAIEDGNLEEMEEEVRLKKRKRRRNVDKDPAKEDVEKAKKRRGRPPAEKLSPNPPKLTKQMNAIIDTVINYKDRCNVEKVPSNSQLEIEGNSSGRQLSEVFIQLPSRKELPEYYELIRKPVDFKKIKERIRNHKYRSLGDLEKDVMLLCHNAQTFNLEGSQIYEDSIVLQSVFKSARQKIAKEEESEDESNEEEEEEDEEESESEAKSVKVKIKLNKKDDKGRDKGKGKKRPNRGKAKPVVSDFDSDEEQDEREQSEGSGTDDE
T2 sequence (P51532 whole entry): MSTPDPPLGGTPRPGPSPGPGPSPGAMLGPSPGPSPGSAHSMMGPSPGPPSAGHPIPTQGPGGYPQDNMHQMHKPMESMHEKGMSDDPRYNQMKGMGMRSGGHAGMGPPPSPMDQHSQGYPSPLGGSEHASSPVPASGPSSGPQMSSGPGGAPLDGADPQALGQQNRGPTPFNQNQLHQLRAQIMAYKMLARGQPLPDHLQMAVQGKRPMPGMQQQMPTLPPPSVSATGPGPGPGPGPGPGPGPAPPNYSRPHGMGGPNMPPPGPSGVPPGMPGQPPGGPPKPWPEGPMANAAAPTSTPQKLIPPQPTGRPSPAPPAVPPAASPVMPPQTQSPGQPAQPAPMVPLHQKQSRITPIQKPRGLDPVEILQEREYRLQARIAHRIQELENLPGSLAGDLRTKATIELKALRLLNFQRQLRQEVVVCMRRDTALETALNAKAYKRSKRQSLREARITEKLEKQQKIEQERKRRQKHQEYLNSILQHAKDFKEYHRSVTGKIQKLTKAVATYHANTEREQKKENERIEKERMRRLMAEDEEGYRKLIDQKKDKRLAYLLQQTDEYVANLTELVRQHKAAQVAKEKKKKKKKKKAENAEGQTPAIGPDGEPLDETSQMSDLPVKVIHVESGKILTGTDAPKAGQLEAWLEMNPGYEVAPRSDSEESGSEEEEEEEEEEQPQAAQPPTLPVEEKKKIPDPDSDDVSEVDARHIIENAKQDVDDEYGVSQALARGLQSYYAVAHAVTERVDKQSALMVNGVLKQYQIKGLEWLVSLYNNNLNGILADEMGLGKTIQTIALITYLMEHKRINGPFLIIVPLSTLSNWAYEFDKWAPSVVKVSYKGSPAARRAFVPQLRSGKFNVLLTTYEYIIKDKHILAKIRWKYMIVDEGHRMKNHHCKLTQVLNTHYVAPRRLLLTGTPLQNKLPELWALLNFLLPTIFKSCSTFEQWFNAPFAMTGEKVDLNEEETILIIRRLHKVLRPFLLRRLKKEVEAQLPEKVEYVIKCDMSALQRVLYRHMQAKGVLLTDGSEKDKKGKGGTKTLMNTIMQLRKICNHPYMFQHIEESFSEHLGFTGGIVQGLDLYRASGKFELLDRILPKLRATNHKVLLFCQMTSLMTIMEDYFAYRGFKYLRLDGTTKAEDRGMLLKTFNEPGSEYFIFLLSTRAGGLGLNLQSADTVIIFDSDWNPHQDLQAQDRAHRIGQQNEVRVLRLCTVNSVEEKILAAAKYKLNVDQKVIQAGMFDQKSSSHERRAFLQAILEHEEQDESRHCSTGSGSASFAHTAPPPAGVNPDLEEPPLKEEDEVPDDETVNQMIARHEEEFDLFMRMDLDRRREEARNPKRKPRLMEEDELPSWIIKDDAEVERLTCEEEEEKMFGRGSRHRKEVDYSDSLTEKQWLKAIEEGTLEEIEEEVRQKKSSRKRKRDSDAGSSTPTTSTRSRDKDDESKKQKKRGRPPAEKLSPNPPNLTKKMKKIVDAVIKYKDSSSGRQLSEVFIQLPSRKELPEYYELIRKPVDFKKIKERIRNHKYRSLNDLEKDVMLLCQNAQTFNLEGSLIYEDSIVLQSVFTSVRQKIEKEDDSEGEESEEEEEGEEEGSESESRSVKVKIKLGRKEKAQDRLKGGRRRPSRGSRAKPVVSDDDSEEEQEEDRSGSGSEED

Structure (SMILES) | DC50 (SMARCA2) | Dmax (SMARCA2) | DC50 (SMARCA4) | Dmax (SMARCA4)
O=C1CCC(N2Cc3ccc(N4CCN(Cc5ccc(O[C@@H]6C[C@@H]7CNc8nnc(-c9cc(F)cc(F)c9O)cc8N7C6)cc5F)CC4)cc3C2=O)C(=O)N1 (stereo partly drawn) [Example 13, 3-(6-(4-(4-(((6aR,8R)-2-(3,5-difluoro-2-hydroxyphenyl)-5,6,6a,7,8,9-hexahydropyrrolo[1′,2′:4,5]pyrazino[2,3-c]pyridazin-8-yl)oxy)-2-fluorobenzyl)piperazin-1-yl)-1-oxoisoindolin-2-yl)piperidine-2,6-dione] | < 100 nM | > 75% | < 100 nM | > 75%
CC(C)c1cc(CN2CCN(c3ccc4c(c3)C(=O)N(C3CCC(=O)NC3=O)C4)CC2)ccc1O[C@@H]1C[C@@H]2CNc3nnc(-c4cc(F)cc(F)c4O)cc3N2C1 (stereo partly drawn) [Example 14, 3-(6-(4-(4-(((6aR,8R)-2-(3,5-difluoro-2-hydroxyphenyl)-5,6,6a,7,8,9-hexahydropyrrolo[1′,2′:4,5]pyrazino[2,3-c]pyridazin-8-yl)oxy)-3-isopropylbenzyl)piperazin-1-yl)-1-oxoisoindolin-2-yl)piperidine-2,6-dione] | < 100 nM | > 75% | < 100 nM | > 75%
O=C1CCC(N2Cc3ccc(N4CCN(Cc5ccc(O[C@@H]6C[C@@H]7CNc8nnc(-c9cc(F)cc(F)c9O)cc8N7C6)cc5C(F)(F)F)CC4)cc3C2=O)C(=O)N1 (stereo partly drawn) [Example 15, 3-(6-(4-(4-(((6aR,8R)-2-(3,5-difluoro-2-hydroxyphenyl)-5,6,6a,7,8,9-hexahydropyrrolo[1′,2′:4,5]pyrazino[2,3-c]pyridazin-8-yl)oxy)-2-(trifluoromethyl)benzyl)piperazin-1-yl)-1-oxoisoindolin-2-yl)piperidine-2,6-dione] | < 100 nM | > 75% | > 1000 nM | 50 to 75%
CC(C)c1cc(O[C@@H]2C[C@@H]3CNc4nnc(-c5cc(F)cc(F)c5O)cc4N3C2)ccc1CN1CCN(c2ccc3c(c2)C(=O)N(C2CCC(=O)NC2=O)C3)CC1 (stereo partly drawn) [Example 16, 3-(6-(4-(4-(((6aR,8R)-2-(3,5-difluoro-2-hydroxyphenyl)-5,6,6a,7,8,9-hexahydropyrrolo[1′,2′:4,5]pyrazino[2,3-c]pyridazin-8-yl)oxy)-2-isopropylbenzyl)piperazin-1-yl)-1-oxoisoindolin-2-yl)piperidine-2,6-dione] | < 100 nM | 50 to 75% | < 100 nM | 50 to 75%
Cc1cc(O[C@@H]2C[C@@H]3CNc4nnc(-c5cc(F)cc(F)c5O)cc4N3C2)cc(C)c1CN1CCN(c2ccc3c(c2)C(=O)N(C2CCC(=O)NC2=O)C3)CC1 (stereo partly drawn) [Example 17, 3-(6-(4-(4-(((6aR,8R)-2-(3,5-difluoro-2-hydroxyphenyl)-5,6,6a,7,8,9-hexahydropyrrolo[1′,2′:4,5]pyrazino[2,3-c]pyridazin-8-yl)oxy)-2,6-dimethylbenzyl)piperazin-1-yl)-1-oxoisoindolin-2-yl)piperidine-2,6-dione] | < 100 nM | > 75% | > 1000 nM | < 50%

The remaining lines, values ahead:

DC50 (SMARCA2) | Dmax (SMARCA2) | DC50 (SMARCA4) | Dmax (SMARCA4) | Structure (SMILES)
< 100 nM | > 75% | < 100 nM | > 75% | Cc1c(CN2CCN(c3ccc4c(c3)C(=O)N(C3CCC(=O)NC3=O)C4)CC2)ccc(O[C@@H]2C[C@@H]3CNc4nnc(-c5cc(F)cc(F)c5O)cc4N3C2)c1C (stereo partly drawn) [Example 18, 3-(6-(4-(4-(((6aR,8R)-2-(3,5-difluoro-2-hydroxyphenyl)-5,6,6a,7,8,9-hexahydropyrrolo[1′,2′:4,5]pyrazino[2,3-c]pyridazin-8-yl)oxy)-2,3-dimethylbenzyl)piperazin-1-yl)-1-oxoisoindolin-2-yl)piperidine-2,6-dione]
< 100 nM | > 75% | < 100 nM | 50 to 75% | Cc1cc(O[C@@H]2C[C@@H]3CNc4nnc(-c5cc(F)cc(Cl)c5O)cc4N3C2)ccc1CN1CCN(c2ccc3c(c2)C(=O)N(C2CCC(=O)NC2=O)C3)CC1 (stereo partly drawn) [Example 19, 3-(6-(4-(4-(((6aR,8R)-2-(3-chloro-5-fluoro-2-hydroxyphenyl)-5,6,6a,7,8,9-hexahydropyrrolo[1′,2′:4,5]pyrazino[2,3-c]pyridazin-8-yl)oxy)-2-methylbenzyl)piperazin-1-yl)-1-oxoisoindolin-2-yl)piperidine-2,6-dione]
< 100 nM | > 75% | > 1000 nM | < 50% | Cc1cc(O[C@@H]2C[C@@H]3CNc4nnc(-c5cccc(C)c5O)cc4N3C2)ccc1CN1CCN(c2ccc3c(c2)C(=O)N(C2CCC(=O)NC2=O)C3)CC1 (stereo partly drawn) [Example 20, 3-(6-(4-(4-(((6aR,8R)-2-(2-hydroxy-3-methylphenyl)-5,6,6a,7,8,9-hexahydropyrrolo[1′,2′:4,5]pyrazino[2,3-c]pyridazin-8-yl)oxy)-2-methylbenzyl)piperazin-1-yl)-1-oxoisoindolin-2-yl)piperidine-2,6-dione]
< 100 nM | > 75% | < 100 nM | > 75% | COc1cc(O[C@@H]2C[C@@H]3CNc4nnc(-c5cccc(Cl)c5O)cc4N3C2)ccc1CN1CCN(c2ccc3c(c2)C(=O)N(C2CCC(=O)NC2=O)C3)CC1 (stereo partly drawn) [Example 21, 3-(6-(4-(4-(((6aR,8R)-2-(3-chloro-2-hydroxyphenyl)-5,6,6a,7,8,9-hexahydropyrrolo[1′,2′:4,5]pyrazino[2,3-c]pyridazin-8-yl)oxy)-2-methoxybenzyl)piperazin-1-yl)-1-oxoisoindolin-2-yl)piperidine-2,6-dione]
< 100 nM | > 75% | < 100 nM | > 75% | O=C1CCC(N2Cc3ccc(N4CCN(Cc5ccc(O[C@@H]6C[C@@H]7CNc8nnc(-c9cc(F)cc(Cl)c9O)cc8N7C6)cc5)CC4)cc3C2=O)C(=O)N1 (stereo partly drawn) [Example 22, 3-(6-(4-(4-(((6aR,8R)-2-(3-chloro-5-fluoro-2-hydroxyphenyl)-5,6,6a,7,8,9-hexahydropyrrolo[1′,2′:4,5]pyrazino[2,3-c]pyridazin-8-yl)oxy)benzyl)piperazin-1-yl)-1-oxoisoindolin-2-yl)piperidine-2,6-dione]
< 100 nM | > 75% | < 100 nM | 50 to 75% | Cc1cccc(-c2cc3c(nn2)NC[C@H]2C[C@@H](Oc4ccc(CN5CCN(c6ccc7c(c6)C(=O)N(C6CCC(=O)NC6=O)C7)CC5)cc4)CN32)c1O (stereo partly drawn) [Example 23, 3-(6-(4-(4-(((6aR,8R)-2-(2-hydroxy-3-methylphenyl)-5,6,6a,7,8,9-hexahydropyrrolo[1′,2′:4,5]pyrazino[2,3-c]pyridazin-8-yl)oxy)benzyl)piperazin-1-yl)-1-oxoisoindolin-2-yl)piperidine-2,6-dione]
< 100 nM | 50 to 75% | > 1000 nM | < 50% | O=C1CCC(N2Cc3ccc(N4CCN(Cc5ccc(O[C@@H]6C[C@@H]7CNc8nnc(-c9cc(F)cc(F)c9O)cc8N7C6)cc5OC(F)(F)F)CC4)cc3C2=O)C(=O)N1 (stereo partly drawn) [Example 24, 3-(6-(4-(4-(((6aR,8R)-2-(3,5-difluoro-2-hydroxyphenyl)-5,6,6a,7,8,9-hexahydropyrrolo[1′,2′:4,5]pyrazino[2,3-c]pyridazin-8-yl)oxy)-2-(trifluoromethoxy)benzyl)piperazin-1-yl)-1-oxoisoindolin-2-yl)piperidine-2,6-dione]
